Data as given in BindingDB's records for PubMed 8450829 (Cnrs, 1993).

Biological target: 5-hydroxytryptamine receptor 5B (Mus musculus, UniProt P31387)
Sequence (P31387 whole entry): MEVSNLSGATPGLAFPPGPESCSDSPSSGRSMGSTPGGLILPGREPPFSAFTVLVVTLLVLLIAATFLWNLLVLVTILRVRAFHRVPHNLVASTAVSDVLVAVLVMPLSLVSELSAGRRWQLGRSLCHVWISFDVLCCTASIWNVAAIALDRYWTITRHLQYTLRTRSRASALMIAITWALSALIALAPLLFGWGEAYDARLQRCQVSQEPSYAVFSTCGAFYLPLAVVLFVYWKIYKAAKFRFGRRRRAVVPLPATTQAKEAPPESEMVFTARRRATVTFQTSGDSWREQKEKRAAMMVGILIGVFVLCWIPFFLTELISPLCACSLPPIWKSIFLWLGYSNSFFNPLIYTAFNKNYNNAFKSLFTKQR

SMILES | Ki [nM]
O=C(c1ccc(F)cc1)C1CCN(CCn2c(=O)[nH]c3ccccc3c2=O)CC1 [3-(2-{4-[(4-fluorophenyl)carbonyl]piperidin-1-yl}ethyl)-1,2,3,4-tetrahydroquinazoline-2,4-dione] | 1580
NCCc1c[nH]c2ccc(O)cc12 [[3H]-5-HT] | 251
NCC(O)c1ccc(O)c(O)c1 (stereo not drawn) [Noradrenaline,(+)] | > 10000
NCCc1ccc(O)c(O)c1 | > 10000
NCCc1c[nH]c2ccc(C(N)=O)cc12 [[3H]-5-carboxamidotryptamine] | 39.8
FC(F)(F)c1cccc(N2CCNCC2)c1 [TFMPP] | 3980
CN(C)CCc1c[nH]c2ccc(O)cc12 [3-[2-(dimethylamino)ethyl]indol-5-ol] | 1580
CN1C[C@H](C(=O)N[C@]2(C)O[C@@]3(O)[C@@H]4CCCN4C(=O)[C@H](Cc4ccccc4)N3C2=O)C=C2c3cccc4[nH]cc(c34)C[C@H]21 [12'-hydroxy-2'-methyl-5'alpha-(phenylmethyl)ergotaman-3',6',18-trione] | 3.16
CCCN(CCC)C1CCc2cccc(O)c2C1 (stereo not drawn) | 398
CNS(=O)(=O)Cc1ccc2[nH]cc(CCN(C)C)c2c1 [Sumax] | 7940
CC[C@@H](CO)NC(=O)[C@@H]1C=C2c3cccc4c3c(cn4C)C[C@H]2N(C)C1 | 126
COc1ccc2[nH]cc(C3=CCNCC3)c2c1 [5-Methoxy-3-(1,2,3,6-tetrahydro-pyridin-4-yl)-1H-indole(RU-24969)] | 398
CSc1ccc2c(c1)C(N1CCN(C)CC1)Cc1ccccc1S2 (stereo not drawn) [methanesulfonic acid;1-methyl-4-(3-methylsulfanyl-5,6-dihydrobenzo[b][1]benzothiepin-5-yl)piperazine] | 15.8
